44 molecules from patent publication US12679827B2, “Pyrimidine compounds and their pharmaceutical uses” (National Health Research Institutes, priority 2020, dated 2026) can be followed below.

For orientation: pIC50 means the negative decadic logarithm of the IC50, by convention in mol/L.

Assay [1] concerns NCI-H446. Description: Small-cell-lung cancer cell proliferation inhibition assay (PrestoBlue), NCI-H446. It counts as cell-based. Particulars: Homo sapiens, cMYC amplified SCLC cells, 72 hours. How it is done:
(§1) Small cell lung cancer cells NCI-H82 (ATCC HTB-175, cMYC amplified), NCI-H446 (ATCC® HTB-171, cMYC amplified), and NCI-H69 (ATCC® HTB-119, MYCN amplified) were seeded at the density of 5000-10000 cells per well in 96-well plates. After 24 hours, the cancer cells were treated with each compound at various concentrations (0-10 μM) and then incubated for another 72 hours. IC50 values were computed based on duplicated 8-point titration.

Assay [2] concerns the target T1, human Aurora A (amino acids 123-401) (Homo sapiens, UniProt O14965).
T1 construct: human Aurora A (amino acids 123-401) was expressed in Sf9 insect cells; GST; made in house; host or cells: Sf9 insect cells
T1 sequence (O14965 123-401): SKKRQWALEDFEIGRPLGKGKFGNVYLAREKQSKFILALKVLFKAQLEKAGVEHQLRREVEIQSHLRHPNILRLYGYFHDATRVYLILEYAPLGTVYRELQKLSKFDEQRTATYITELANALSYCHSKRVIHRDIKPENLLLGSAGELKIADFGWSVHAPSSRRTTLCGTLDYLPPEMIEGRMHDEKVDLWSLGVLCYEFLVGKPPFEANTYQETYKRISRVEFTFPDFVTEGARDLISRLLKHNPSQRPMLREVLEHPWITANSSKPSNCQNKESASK
Kind of assay: Kinase-Glo Luminescent Kinase assay, in vitro inhibition of Aurora A kinase activity. It counts as biochemical. Particulars: recombinant GST-tagged Aurora A, 5.0 μM ATP, 37° C., 120 minutes. As for the experimental part: Recombinant glutathione S-transferase (GST)-tagged N-terminal truncated human Aurora A (amino acids 123-401) was expressed in Sf9 insect cells and then purified by glutathione affinity chromatography to afford recombinant Aurora A. Recombinant Aurora A (150 ng) was reacted with each test compound (100 nM) in 50 μL of 50 mM Tris-HCl pH 7.4, 10 mM NaCl, 10 mM MgCl2, 0.01% bovine serum albumin, 5.0 μM ATP, 1 mM dithiothreitol, 15 μM tetra(-LRRASLG) peptide at 37° C. for 120 minutes. Then, to the reaction was added 50 μL of Kinase-Glo Plus Reagent. The resulting mixture was incubated at 25° C. for 20 minutes. A 70 μL aliquot of the mixture was transferred to a black microliter plate. Luminescence was measured using a Wallac Vector 1420 multilabel counter (PerkinElmer, USA).
(In general: Kinase-Glo measures the ATP left after a reaction by luminescence.)

Assay [3] deals with NCI-H82. Kind of assay: Small-cell-lung cancer cell proliferation inhibition assay (PrestoBlue), NCI-H82. It counts as cell-based. Conditions: Homo sapiens, cMYC amplified SCLC cells, 72 hours. How it is done: as §1

pIC50: −log10 of the molar value. A value given as a limit tells only on which side of the number the result lay.

Take `CCN1CCN(c2cc(Nc3ncc(C#N)s3)nc(N[C@H]3CCN(C(=O)c4ccc(Cl)cc4F)C3)n2)CC1` [Compound 1]: the pIC50 in assay [1] is > 6.00; in assay [2] it was > 7.00; in assay [3], > 6.00.
As to `CCOC(=O)c1cnc(Nc2cc(N3CCN(C)CC3)nc(N[C@H]3CCN(C(=O)c4ccc(Cl)cc4F)C3)n2)s1` [Compound 2], the figures for the pIC50 in assay [2] and in assay [3] were > 7.00 and > 6.00, respectively.
Regarding `Cc1cc(Nc2cc(N3CC(N(C)C)C3)nc(N[C@H]3CCN(C(=O)c4ccc(Cl)cc4F)C3)n2)n[nH]1` [Compound 8], the pIC50 in assay [1] is > 6.00; in assay [2], > 7.00; in assay [3], > 6.00.
Consider `CC(=O)N1CCN(c2cc(Nc3cc(C)[nH]n3)nc(N[C@H]3CCN(C(=O)c4ccc(Cl)cc4F)C3)n2)CC1` [Compound 12], for which the pIC50 in assay [1] was > 6.00; in assay [2] it was > 7.00; in assay [3], > 6.00.
With `COCCN(C)c1cc(Nc2cc(C)[nH]n2)nc(N[C@H]2CCN(C(=O)c3ccc(Cl)cc3F)C2)n1` [Compound 17], the pIC50 is > 6.00 in assay [1], > 7.00 in assay [2] and > 6.00 in assay [3].
`Cc1cc(Nc2cc(N3CC[C@@H](N(C)C)C3)nc(N[C@H]3CCN(C(=O)c4ccc(Cl)cc4F)C3)n2)n[nH]1` [Compound 18]: the pIC50 in assay [1] and in assay [3] was > 6.00 each time.
On to `COC1CN(c2cc(Nc3cc(C)[nH]n3)nc(N[C@H]3CCN(C(=O)c4ccc(Cl)cc4F)C3)n2)C1` [Compound 19], for which the results for the pIC50 in assay [1], in assay [2] and in assay [3] were > 6.00, > 7.00 and > 6.00, respectively.
Take `Cc1cc(Nc2cc(N3CC[C@@H](N(C)C)C3)nc(N[C@H]3CCN(C(=O)c4cccc(Cl)c4F)C3)n2)n[nH]1` [Compound 20]: the pIC50 in assay [2] is > 7.00.
On to `Cc1cc(Nc2cc(N3CC[C@H](N(C)C)C3)nc(N[C@H]3CCN(C(=O)c4cccc(Cl)c4F)C3)n2)n[nH]1` [Compound 22], for which the pIC50 in assay [1] is > 6.00; in assay [2] it was > 7.00; in assay [3], > 6.00.
For the molecule `COC[C@@H]1CCCN1c1cc(Nc2cc(C)[nH]n2)nc(N[C@H]2CCN(C(=O)c3cccc(Cl)c3F)C2)n1` [Compound 23], in assay [2], the negative-log IC50 (pIC50) was > 7.00.
The same measure, in the same setting: the value for `COC[C@H]1CCCN1c1cc(Nc2cc(C)[nH]n2)nc(N[C@H]2CCN(C(=O)c3cccc(Cl)c3F)C2)n1` [Compound 24] was > 7.00.
Consider `Cc1cc(Nc2cc(N3CC(N(C)C)C3)nc(N[C@H]3CCN(C(=O)c4cccc(Cl)c4F)C3)n2)n[nH]1` [Compound 25], for which the results for the pIC50 in assay [1], in assay [2] and in assay [3] were > 6.00, > 7.00 and > 6.00, respectively.
For the molecule `Cc1cc(Nc2cc(N3CCNCC3)nc(N[C@H]3CCN(C(=O)c4cccc(Cl)c4F)C3)n2)n[nH]1` [Compound 26], the pIC50 in assay [1] is > 6.00; in assay [2], > 7.00; in assay [3], > 6.00.
Turning to `Cc1cc(Nc2cc(N(C)CCN(C)C)nc(N[C@H]3CCN(C(=O)c4cccc(Cl)c4F)C3)n2)n[nH]1` [Compound 27], the figures for the pIC50 in assay [1], in assay [2] and in assay [3] were > 6.00, > 7.00 and > 6.00, respectively.
Turning to `COC1CCN(c2cc(Nc3cc(C)[nH]n3)nc(N[C@H]3CCN(C(=O)c4cccc(Cl)c4F)C3)n2)CC1` [Compound 28], the pIC50 in assay [2] was > 7.00.
In the case of `CCN1CCN(c2cc(Nc3cc(C)[nH]n3)nc(N[C@H]3CCN(C(=O)c4ccc(Cl)cc4)C3)n2)CC1` [Compound 29], the pIC50 in assay [2] was > 7.00.
With `Cc1cc(Nc2cc(N3CCN(C)CC3)nc(N[C@H]3CCN(Cc4cccc(Cl)c4F)C3)n2)n[nH]1` [Compound 30], the pIC50 in assay [2] is > 7.00.
Turning to `CCN1CCN(c2cc(Nc3cc(C)[nH]n3)nc(N[C@H]3CCN(Cc4cccc(Cl)c4F)C3)n2)CC1` [Compound 31], the values for the pIC50 in assay [1], in assay [2] and in assay [3] were > 6.00, > 7.00 and > 6.00, respectively.
For the molecule `CCN1CCN(c2cc(Nc3cc(C)[nH]n3)nc(N[C@H]3CCN(C(=O)c4ccc(Cl)cc4Cl)C3)n2)CC1` [Compound 32], the results for the pIC50 in assay [1], in assay [2] and in assay [3] were > 6.00, > 7.00 and > 6.00, respectively.
In the case of `CCN1CCN(c2cc(Nc3cc(C)[nH]n3)nc(N[C@H]3CCN(C(=O)c4ccc(Cl)c(C)c4)C3)n2)CC1` [Compound 33], in assay [2], the pIC50 was > 7.00.
With `CCN1CCN(c2cc(Nc3cc(C)[nH]n3)nc(N[C@H]3CCN(C(=O)c4ccc(Cl)cc4C)C3)n2)CC1` [Compound 34], the pIC50 in assay [2] is > 7.00.
As to `Cc1cc(Nc2cc(N3CCN(C)CC3)nc(N[C@H]3CCN(C(=O)c4cccc(Cl)c4F)C3)n2)n[nH]1` [Compound 35], the pIC50 in assay [1] is > 6.00; in assay [2], > 7.00; in assay [3], > 6.00.
Turning to `Cc1cc(Nc2cc(N3CCN(C)CC3)nc(N[C@H]3CCN(C(=O)c4ccc(Cl)cc4F)C3)n2)n[nH]1` [Compound 36], the pIC50 is > 6.00 in assay [1], > 7.00 in assay [2] and > 6.00 in assay [3].
Regarding `CCN1CCN(c2cc(Nc3cc(C)[nH]n3)nc(N[C@H]3CCN(C(=O)c4cc(Cl)ccc4F)C3)n2)CC1` [Compound 37], the pIC50 in assay [1] is > 6.00; in assay [2], > 7.00; in assay [3] it was > 6.00.
With `CCN1CCN(c2cc(Nc3cc(C)[nH]n3)nc(N[C@H]3CCN(C(=O)c4cccc(Cl)c4F)C3)n2)CC1` [Compound 38], the pIC50 is > 6.00 in assay [1], > 7.00 in assay [2] and > 6.00 in assay [3].
`CCN1CCN(c2cc(Nc3cc(C)[nH]n3)nc(N[C@H]3CCN(C(=O)c4ccc(Cl)c(F)c4)C3)n2)CC1` [Compound 39]: the pIC50 in assay [1] was > 6.00; in assay [2] it was > 7.00; in assay [3], > 6.00.
For the molecule `CCN1CCN(c2cc(Nc3cc(C)[nH]n3)nc(N[C@H]3CCN(C(=O)c4ccc(Cl)c(F)c4F)C3)n2)CC1` [Compound 40], the pIC50 in assay [1] was > 6.00; in assay [2], > 7.00; in assay [3] it was > 6.00.
For the molecule `CCN1CCN(c2cc(Nc3cc(C)[nH]n3)nc(N[C@H]3CCN(C(=O)c4cc(F)c(Cl)cc4F)C3)n2)CC1` [Compound 43], the pIC50 in assay [1] is > 6.00; in assay [2], > 7.00; in assay [3], > 6.00.
With `CCN1CCN(c2cc(Nc3cc(C)[nH]n3)nc(NC3CCN(C(=O)c4cccc(Cl)c4F)C3)n2)CC1` (centres unmarked) [Compound 58], the pIC50 in assay [2] is > 7.00.
As to `CCN1CCN(c2cc(Nc3cc(C)nn3C(C)=O)nc(N[C@H]3CCN(C(=O)c4ccc(Cl)cc4F)C3)n2)CC1` [Compound 70], the pIC50 in assay [1] and in assay [3] was > 6.00 in each case.
Consider `COCCN(C)c1cc(Nc2cc(C)[nH]n2)nc(NC2CCN(C(=O)c3cccc(Cl)c3F)CC2)n1` [Compound 98], for which the pIC50 in assay [1] and in assay [3] was > 6.00 each time.
Take `CCN1CCN(c2cc(Nc3cc(C)[nH]n3)nc(N(CC)C3CCN(C(=O)c4cccc(Cl)c4F)CC3)n2)CC1` [Compound 109]: in assay [2], the pIC50 is > 7.00.
As for `Cc1cc(Nc2ccnc(NC3CCN(Cc4cccc(Cl)c4F)CC3)n2)n[nH]1` [Compound 110], the pIC50 in assay [2] was > 7.00.
As to `Cc1cc(Nc2cc(C)[nH]n2)nc(N(C)C2CCN(Cc3cccc(Cl)c3F)CC2)n1` [Compound 111], the pIC50 in assay [2] was > 7.00.
Regarding `Cc1cc(Nc2ccnc(NC3CCN(C(=O)c4cccc(F)c4F)CC3)n2)n[nH]1` [Compound 113], the pIC50 in assay [2] was > 7.00.
Consider `Cc1cc(Nc2cc(C)[nH]n2)nc(NC2CCN(C(=O)c3cccc(F)c3F)CC2)n1` [Compound 114], for which the pIC50 in assay [2] is > 7.00.
`Cc1cc(Nc2nccs2)nc(N(C)C2CCN(Cc3cccc(Cl)c3F)CC2)n1` [Compound 115]: the pIC50 in assay [2] was > 7.00.
On the same count and under the same terms, the value for `Cc1cc(Nc2nccs2)nc(NC2CCN(Cc3cccc(Cl)c3F)CC2)n1` [Compound 116] was > 7.00.
Regarding `Cc1cc(Nc2ccnc(NC3CCN(C(=O)c4cccc(Cl)c4Cl)CC3)n2)n[nH]1` [Compound 118], the pIC50 in assay [2] was > 7.00.
For the molecule `Cc1cc(Nc2cc(C)[nH]n2)nc(NC2CCN(Cc3cccc(Cl)c3F)CC2)n1` [Compound 119], in assay [2], the pIC50 was > 7.00.
The same measure, in the same setting: the value for `Cc1cc(Nc2cc(C)[nH]n2)nc(NC2CCN(C(=O)c3cccc(Cl)c3F)CC2)n1` [Compound 120] was > 7.00; that for `Cc1cc(Nc2cc(C)[nH]n2)nc(NC2CCN(C(=O)c3cccc(Cl)c3Cl)CC2)n1` [Compound 121] was > 7.00.
Consider `CCN1CCN(c2cc(Nc3cc(C)nn3C(=O)C(C)C)nc(NC3CCN(C(=O)c4cccc(Cl)c4F)CC3)n2)CC1` [Compound 124], for which the pIC50 in assay [1] and in assay [3] was > 6.00 in each case.
Regarding `CCCC(=O)n1nc(C)cc1Nc1cc(N2CCN(CC)CC2)nc(NC2CCN(C(=O)c3cccc(Cl)c3F)CC2)n1` [Compound 125], the pIC50 in assay [1] and in assay [3] was > 6.00 each time.
